SMILES strings stand for the structures.

This is an account of results in publication PMC10138389, “Study of Lipophilicity and ADME Properties of 1,9-Diazaphenothiazines with Anticancer Action” (International Journal of Molecular Sciences, 2023).

For data set [1] the following is noted: cited from earlier work; for logPTLC, 1,6-Diaza: 1,6-diazaphenothiazines; for logPTLC, 1,8-Diaza: 1,8-diazaphenothiazines; for logPTLC, 2,7-Diaza: 2,7-diazaphenothiazines; for logPTLC, 3,6-Diaza: 3,6-diazaphenothiazines.
A further data set relates to breast cancer MDA-MB-231. Further details: method as in PMID 31307242, PMID 33807874. Particulars: cited from earlier work.
The test system of another data set is glioblastoma SNB-19. Further details: method as in PMID 31307242, PMID 33807874. The settings on record: cited from earlier work.
For a further data set, the system named is melanoma C-32. Further details: method as in PMID 31307242, PMID 33807874. The settings on record: melanoma C-32 cell line; cited from earlier work.
A short description of data set [2]: experimental lipophilicity by RP-TLC (RM0, logPTLC). The settings on record: for logPTLC, 1,9-Diaza: 1,9-diazaphenothiazines, comparison table; for −b (slope of RM = RM0 + bC) / RM0 (relative lipophilicity parameter): RP-TLC; for −b (slope of RM = RM0 + bC): RP 18F254S, acetone/TRIS buffer pH 7.4; for RM0 (relative lipophilicity parameter): extrapolation to zero acetone concentration, TRIS buffer pH 7.4; for chromatographic logP: pH 7.4, RM0 converted with the calibration curve of standards I–V. The class given is physicochemical. As for the experimental part: In the next stage, experimental measurements of the lipophilicity coefficient were performed with the use of reversed-phase thin-layer chromatography RP-TLC.
The experimental RP-TLC method provided the RM retention parameter (calculated from RF value measurements) using the following equation:RM = log (1/RF − 1)(1)
Then a calibration curve was created using the same measuring conditions. […] The calibration curve was used to convert the values of the relative lipophilicity parameter RM0 of the tested hybrids into the value of the absolute lipophilicity parameter logPTLC.
The equation of the standard curve with which it was possible to convert the relative lipophilicity parameter RM0 into the absolute parameter logPTLC is presented in Figure 2.
The RP-TLC method was used to determine the experimental lipophilicity according to the literature. Modified silica gel RP 18F254S (Merck) was used as the stationary phase and a mixture of tris(hydroxymethyl)aminomethane (TRIS) (0.2 M, buffer pH = 7.4) with acetone as the mobile phase with the range of concentrations from 40 to 70% (v/v) in 5% increments. […] Spots were observed under UV light at λ = 254 nm. Each measurement was performed in triplicate and then the RF values were calculated.

The subject of the next data set is SNB-19 cells. Details: method as in PMID 33807874. The settings on record: Annexin V; cited from earlier work.
The test system of data set [3] is H3, TP53, CDKN1A, BCL-2, and BAX genes. Further details: method as in PMID 33807874. Particulars: RT-QPCR, tested cell lines; cited from earlier work.
For data set [4] the following is noted: standards; cited from earlier work.

Turning to `c1cnc2c(c1)Nc1ncccc1S2` [1,6-Diaza A, 10H-1,6-diazaphenothiazine], the “logPTLC, 1,6-Diaza” value in data set [1] was 2.316.

With `C=CCN1c2cccnc2Sc2cccnc21` [1,6-Diaza B], in data set [1], the “logPTLC, 1,6-Diaza” value is recorded as 3.008.

As for `C#CCN1c2cccnc2Sc2cccnc21` [1,6-Diaza C], the “logPTLC, 1,6-Diaza” value in data set [1] was 1.574.

As to `CN(C)CCCN1c2cccnc2Sc2cccnc21` [1,6-Diaza D], the “logPTLC, 1,6-Diaza” value in data set [1] was 1.156.

For the compound `c1cnc2c(c1)Sc1ccncc1N2` [1,8-Diaza A], the “logPTLC, 1,8-Diaza” value in data set [1] was 1.759.

Turning to `C=CCN1c2cnccc2Sc2cccnc21` [1,8-Diaza B], the “logPTLC, 1,8-Diaza” value in data set [1] is 2.313.

On to `C#CCN1c2cnccc2Sc2cccnc21` [1,8-Diaza C], for which, in data set [1], the “logPTLC, 1,8-Diaza” value was 2.186.

`CN(C)CCCN1c2cnccc2Sc2cccnc21` [1,8-Diaza D]: in data set [1], the “logPTLC, 1,8-Diaza” value was 1.832.

With `c1cc2c(cn1)Nc1ccncc1S2` [2,7-Diaza A], in data set [1], the “logPTLC, 2,7-Diaza” value is 1.540.

Consider `C=CCN1c2ccncc2Sc2ccncc21` [2,7-Diaza B], for which the “logPTLC, 2,7-Diaza” value in data set [1] is listed as 1.940.

As for `C#CCN1c2ccncc2Sc2ccncc21` [2,7-Diaza C], the “logPTLC, 2,7-Diaza” value in data set [1] is 1.654.

For `CN(C)CCCN1c2ccncc2Sc2ccncc21` [2,7-Diaza D], the “logPTLC, 2,7-Diaza” value in data set [1] is 1.940.

`c1cnc2c(c1)Nc1ccncc1S2` [3,6-Diaza A, 10H-3,6-diazaphenothiazine]: the “logPTLC, 3,6-Diaza” value in data set [1] is listed as 0.952.

As to `C=CCN1c2ccncc2Sc2ncccc21` [3,6-Diaza B], the “logPTLC, 3,6-Diaza” value in data set [1] is reported as 1.329.

For the compound `C#CCN1c2ccncc2Sc2ncccc21` [3,6-Diaza C], in data set [1], the “logPTLC, 3,6-Diaza” value is 1.342.

Regarding `CN(C)CCCN1c2ccncc2Sc2ncccc21` [3,6-Diaza D], in data set [1], the “logPTLC, 3,6-Diaza” value is reported as 1.404.

For `c1cnc2c(c1)Sc1cccnc1N2` [Compound 1, 10H-1,9-diazaphenothiazine], the “anticancer activity against other lines” value in the data set on breast cancer MDA-MB-231 is “inactive”. For the same compound, the “anticancer activity against other lines” value with glioblastoma SNB-19 was “inactive”. Also, the IC50 in the data set with melanoma C-32 is 3.83 µM. In data set [2], the “logPTLC, 1,9-Diaza” value was found to be 1.476; the “−b (slope of RM = RM0 + bC)” value was found to be 0.0205; the “RM0 (relative lipophilicity parameter)” value is given as 1.1970; the chromatographic logP came to 1.48.

`CN1c2ncccc2Sc2cccnc21` [Compound 2]: in data set [2], the “−b (slope of RM = RM0 + bC)” value worked out at 0.0192, the “RM0 (relative lipophilicity parameter)” value is on record as 1.3850 and the chromatographic logP amounted to 1.66.

Consider `C=CCN1c2ncccc2Sc2cccnc21` [Compound 3], for which, in data set [2], the “logPTLC, 1,9-Diaza” value was determined as 1.682; the “−b (slope of RM = RM0 + bC)” value is 0.0278; the “RM0 (relative lipophilicity parameter)” value was 1.4052; the chromatographic logP turned out to be 1.68.

For `C#CCN1c2ncccc2Sc2cccnc21` [Compound 4], the “early and late cell apoptosis populations” value in the data set on SNB-19 cells is reported as “slight increase”. Further, in data set [2], the “logPTLC, 1,9-Diaza” value was 1.747; the “−b (slope of RM = RM0 + bC)” value was 0.0195; the “RM0 (relative lipophilicity parameter)” value is reported as 1.4720; the chromatographic logP was 1.75. Moreover, in data set [3], the “expression of the CDKN1A gene” value is given as “enhanced”, the “expression of the H3 gene” value is given as “reduced” and the “expression of the TP53 gene” value is recorded as “reduced”.

For `c1ccc(CN2c3ncccc3Sc3cccnc32)cc1` [Compound 5, 10-benzyl-1,9-diazaphenothiazine], in data set [2], the “−b (slope of RM = RM0 + bC)” value came out at 0.0205, the “RM0 (relative lipophilicity parameter)” value was 1.7877 and the chromatographic logP came out at 2.06.

Turning to `CN(C)CCCN1c2ncccc2Sc2cccnc21` [Compound 6], in data set [2], the “logPTLC, 1,9-Diaza” value is on record as 2.080; the “−b (slope of RM = RM0 + bC)” value came out at 0.0170; the “RM0 (relative lipophilicity parameter)” value was 1.8096; the chromatographic logP stood at 2.08.

For the compound `CCN(CC)CCN1c2ncccc2Sc2cccnc21` [Compound 7], the “early and late cell apoptosis populations” value with SNB-19 cells is listed as “slight increase”. In data set [2], the “−b (slope of RM = RM0 + bC)” value is on record as 0.0180, the “RM0 (relative lipophilicity parameter)” value was 1.7934 and the chromatographic logP amounted to 2.06. In data set [3], the “expression of the CDKN1A gene” value is on record as “enhanced”, the “expression of the H3 gene” value was “reduced” and the “expression of the TP53 gene” value is “reduced”.

As for `CC(CN(C)C)CN1c2ncccc2Sc2cccnc21` (stereo not shown) [Compound 8], in data set [2], the “−b (slope of RM = RM0 + bC)” value came out at 0.0228, the “RM0 (relative lipophilicity parameter)” value is listed as 1.8961 and the chromatographic logP was 2.17.

For `c1cnc2c(c1)Sc1cccnc1N2CCN1CCCC1` [Compound 9], in data set [2], the “−b (slope of RM = RM0 + bC)” value is 0.0123, the “RM0 (relative lipophilicity parameter)” value was 1.9434 and the chromatographic logP turned out to be 2.21.

On to `c1cnc2c(c1)Sc1cccnc1N2CCN1CCCCC1` [Compound 10], for which, in data set [2], the “−b (slope of RM = RM0 + bC)” value amounted to 0.0214, the “RM0 (relative lipophilicity parameter)” value is 1.9781 and the chromatographic logP was 2.25.

Regarding `CN1CCCCC1CCN1c2ncccc2Sc2cccnc21` (stereo not shown) [Compound 11], in data set [2], the “−b (slope of RM = RM0 + bC)” value is on record as 0.0211, the “RM0 (relative lipophilicity parameter)” value was 1.9988 and the chromatographic logP turned out to be 2.27.

Turning to `CC(=O)Nc1ccccc1` [I, acetanilide, reference compound], in data set [2], the “−b (slope of RM = RM0 + bC)” value is given as 0.018 and the “RM0 (relative lipophilicity parameter)” value is recorded as 1.011. The “log P TLC (logPlit.)” value in data set [4] was 1.21 [22].

`CC(=O)c1ccccc1` [II, acetophenone, reference compound]: the “−b (slope of RM = RM0 + bC)” value in data set [2] is listed as 0.019.

`CC(=O)c1ccc(Br)cc1` [III, 4-bromoacetophenone, reference compound]: in data set [2], the “−b (slope of RM = RM0 + bC)” value turned out to be 0.033 and the “RM0 (relative lipophilicity parameter)” value is listed as 2.281. Also, the “log P TLC (logPlit.)” value in data set [4] is 2.43 [23].

Regarding `O=C(c1ccccc1)c1ccccc1` [IV, benzophenone, reference compound], the “−b (slope of RM = RM0 + bC)” value in data set [2] worked out at 0.034.

Turning to `c1ccc2cc3ccccc3cc2c1` [V, anthracene, reference compound], in data set [2], the “−b (slope of RM = RM0 + bC)” value was 0.044 and the “RM0 (relative lipophilicity parameter)” value is reported as 3.588. Further, the “log P TLC (logPlit.)” value in data set [4] is 5.53 [22].

Turning to `N.N.[Cl][Pt][Cl]` [cisplatin, reference compound], the half-maximal inhibitory concentration (IC50) in the data set on melanoma C-32 was 13.2 µM.
